Experimental data as given in patent publication US20230002324A1, “NAPHTHOQUINONE DERIVATIVES FOR TREATMENT OF OXIDATIVE STRESS DISORDERS” (PTC THERAPEUTICS, INC., priority 2019, published 2023).
Like-named read-outs stand apart in the source and are kept apart here.

Experiments:
Type in all cases: cell-based
[1] = test system: Q7 cells (ST HDH Q7/7; immortalized mouse striatal cells); test: Q7 RSL3 challenge cell survival (rescue) assay; conditions: 18 h, read-out: Q7 RSL3 Survival EC50
Text: (§1) In neuronal cells excess extracellular glutamate inhibits the cystine/glutamate antiporter leading to intracellular cysteine depletion, GSH depletion, reactive oxygen species (ROS) production and cell death, a phenomenon termed oxidative glutamate toxicity, oxytosis, or ferroptosis. […] Q7 cells (ST HDH Q7/7; immortalized mouse striatal cells) challenged with cystine-free media or the selective, irreversible GPX4 inhibitor, methyl (1S,3R)-2-(2-chloroacetyl)-1-(4-(methoxycarbonyl)phenyl)-2,3,4,9-tetrahydro-1H-pyrido[3,4-b]indole-3-carboxylate (hereafter referred to as RSL3), recapitulate this phenotype, as do normal human fibroblasts (NHF) challenged with RSL3. An initial screen was performed to identify compounds effective in rescuing Q7 and/or NHF cells from death resulting from cystine deprivation or RSL3 challenge. This method is further described in Yonezawa et al., J. Neurochem 67, 566-573 (1996), Li et al., J Neurosci., 23, 5816-5826 (2003), Yang and Stockwell, Chem Biol., 15: 234-45 (2008), and Yang et al., Cell 156, 317-331 (2014). See also Hinman A, Holst C R, Latham J C, et al. Vitamin E hydroquinone is an endogenous regulator of ferroptosis via redox control of 15-lipoxygenase. PLoS One. 2018; 13(8):e0201369. Published 2018 Aug. 15. doi:10.1371/journal.pone.0201369; and Kahn-Kirby A H, Amagata A, Maeder C I, et al. Targeting ferroptosis: A novel therapeutic strategy for the treatment of mitochondrial disease-related epilepsy. PLoS One. 2019; 14(3):e0214250. Published 2019 Mar. 28. doi:10.1371/journal.pone.0214250.
(§2) DMEM (Catalog no. 11995-040), DMEM without Cystine (Catalog no. 21013-024), DMEM without Glucose (Catalog A1443001), PBS (Phosphate buffered saline), Penicillin-streptomycin mix, L-Glutamine, Glucose, Phenol Red, and Pyruvate were purchased from ThermoFisher Scientific (Gibco). Fetal Bovine Serum was obtained from Mediatech, Inc., or Sigma Aldrich. Mouse striatum derived ST HDH Q7/7 (Q7) and normal human skin fibroblast (NHF, product number GM21811) cells were obtained from the Coriell Institute. Methionine and Vitamin K2 were purchased from Sigma Aldrich. RSL3 was synthesized as previously described (see e.g. US Patent Publication US2010/0081654). Cell Titer Glo 2.0 was purchased from Promega. Q7 cell culture medium (Q7 growth medium) was made by combining 50 mL Fetal Bovine Serum, 100 U/mL penicillin, and 100 microgram/mL streptomycin; DMEM was added to make the volume up to 500 mL. Assay medium for the Cystine Deprivation assay was prepared by combining 50 mL Fetal Bovine Serum, 100 U/mL penicillin, 100 microgram/mL streptomycin, 4 mM L-Glutamine, 1 mM Pyruvate and 30 mg/L Methionine; DMEM without Cystine was added to make the volume up to 500 mL. NHF cell culture medium (NHF growth medium) was made by combining 50 mL Fetal Bovine Serum, 100 U/mL penicillin, 100 microgram/mL streptomycin, 2.8 mL 20% Glucose solution (final concentration 6 mM), L-glutamine (final concentration 2 mM), phenol red (final concentration 15 mg/L); DMEM without Glucose was added to make the volume up to 500 mL. Assay medium for the RSL3 challenge assay was identical to Growth medium. While not in use during the course of the experiments, these solutions were stored at 4° C. The cells were grown in 150-cm^2 tissue culture-treated flasks. Every third or fourth day, the cells were sub-cultured by trypsinization and re-seeded at a cell density of 600,000 (Q7) or 300,000 (NHF) cells per flask.
(§3) Q7 or NHF cells were cultured routinely as described herein. For 384-well cell survival assays, cells were seeded in clear bottom, black wall 384-well tissue culture-treated polystyrene plates by re-suspending a cell suspension at a density of 50,000 cells/mL in growth medium, then dispensing 60 microliters of cell suspension per well using either an electronic multichannel pipette or a Multidrop™ Combi Reagent Dispenser (ThermoFisher Scientific), corresponding to 3,000 cells/well. […]

[2] = test system: normal human fibroblasts (NHF, GM21811); test: NHF GM21811 RSL3 challenge cell survival (rescue) assay; conditions: Fibroblast, 48 h, read-out: NHF GM21811 RSL3 Survival EC50
Text: as §1, §2, §3

[3] = test system: Q7 cells (ST HDH Q7/7; immortalized mouse striatal cells); test: Q7 Cystine Deprivation cell survival (rescue) assay; conditions: 18 h, read-out: Q7 Cystine Deprivation Survival EC50
Summary of the method: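 Cells were seeded at 3,000/well and allowed to attach for 5 h at 33 °C. Wells were then washed twice with PBS and switched to cystine-free DMEM containing FBS, 4 mM L-glutamine, 1 mM pyruvate and 30 mg/L methionine to induce ferroptotic death. Compounds were scored for survival rescue.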

[4] = Q7 cells, RSL3 2 micromolar, Cell Titer Glo
[5] = NHF cells, RSL3 2 micromolar, Cell Titer Glo
[6] = Q7 cells, cystine-free medium, Cell Titer Glo, 50% relative viability vs Vitamin K2 (1 micromolar)

## Cc1ccc(CC2=C(CCC3COC3)C(=O)c3ccccc3C2=O)nc1 [Example 122, 2-((5-methylpyridin-2-yl)methyl)-3-(2-(oxetan-3-yl)ethyl)naphthalene-1,4-dione]
[1]; [4]
  EC50: < 50 nM
[2]; [5]
  EC50: 50 to 250 nM
[3]; [6]
  EC50: < 50 nM

## CC1=C(Cc2ccc(C(F)(F)F)c(C#N)n2)C(=O)c2ccccc2C1=O [Example 77, 6-((3-methyl-1,4-dioxo-1,4-dihydronaphthalen-2-yl)methyl)-3-(trifluoromethyl)picolinonitrile]
[1]; [4]
  EC50: < 50 nM
[2]; [5]
  EC50: < 50 nM

## [2H]C([2H])([2H])C1=C(Cc2ccc(C(F)(F)F)c(C#N)n2)C(=O)c2cc(F)cc(F)c2C1=O [Example 71, 6-((5,7-difluoro-3-(methyl-d3)-1,4-dioxo-1,4-dihydronaphthalen-2-yl)methyl)-3-(trifluoromethyl)picolinonitrile]
[1]; [4]
  EC50: < 50 nM
[2]; [5]
  EC50: < 50 nM

## CCCC1=C(Cc2ccc(F)c(C)n2)C(=O)c2ccccc2C1=O [Example 118, 2-((5-fluoro-6-methylpyridin-2-yl)methyl)-3-propylnaphthalene-1,4-dione]
[1]; [4]
  EC50: < 50 nM
[2]; [5]
  EC50: < 50 nM
[3]; [6]
  EC50: < 50 nM

## O=C1C(Cc2ccc(F)cn2)=C(C2CC2)C(=O)c2c(F)ccc(F)c21 [Example 87, 2-cyclopropyl-5,8-difluoro-3-((5-fluoropyridin-2-yl)methyl)naphthalene-1,4-dione]
[1]; [4]
  EC50: < 50 nM
[2]; [5]
  EC50: < 50 nM

## [2H]C([2H])([2H])C1=C(Cc2ccc(C(F)(F)F)cn2)C(=O)c2ccccc2C1=O [Example 54, 2-(methyl-d3)-3-((5-(trifluoromethyl)pyridin-2-yl)methyl)naphthalene-1,4-dione]
[1]; [4]
  EC50: < 50 nM
[3]; [6]
  EC50: < 50 nM

## CC1=C(Cc2ccc(F)cn2)C(=O)c2ccccc2C1=O [Example 6, 2-((5-fluoropyridin-2-yl)methyl)-3-methylnaphthalene-1,4-dione]
[1]; [4]
  EC50: < 50 nM
[2]; [5]
  EC50: < 50 nM
[3]; [6]
  EC50: < 50 nM

## CCCC1=C(Cc2ccc(F)cn2)C(=O)c2ccccc2C1=O [Example 116, 2-((5-fluoropyridin-2-yl)methyl)-3-propylnaphthalene-1,4-dione]
[1]; [4]
  EC50: < 50 nM
[2]; [5]
  EC50: < 50 nM
[3]; [6]
  EC50: < 50 nM

## CC1=C(Cc2ccc(C(F)(F)F)cn2)C(=O)c2c(F)ccc(F)c2C1=O [Example 52, 5,8-difluoro-2-methyl-3-((5-(trifluoromethyl)pyridin-2-yl)methyl)naphthalene-1,4-dione]
[1]; [4]
  EC50: < 50 nM
[2]; [5]
  EC50: < 50 nM
[3]; [6]
  EC50: < 50 nM

## [2H]C([2H])([2H])C1=C(Cc2ccc(C(F)(F)F)c(C#N)n2)C(=O)c2c(F)ccc(F)c2C1=O [Example 76, 6-((5,8-difluoro-3-(methyl-d3)-1,4-dioxo-1,4-dihydronaphthalen-2-yl)methyl)-3-(trifluoromethyl)picolinonitrile]
[1]; [4]
  EC50: < 50 nM
[2]; [5]
  EC50: < 50 nM

## [2H]C([2H])([2H])C1=C(Cc2ccc(C(F)(F)F)c(C#N)n2)C(=O)c2c(F)cc(F)cc2C1=O [Example 72, 6-((6,8-difluoro-3-(methyl-d3)-1,4-dioxo-1,4-dihydronaphthalen-2-yl)methyl)-3-(trifluoromethyl)picolinonitrile]
[1]; [4]
  EC50: < 50 nM
[2]; [5]
  EC50: < 50 nM

## CCCC1=C(Cc2ccc(C(F)(F)F)c(C#N)n2)C(=O)c2ccccc2C1=O [Example 114, 6-((1,4-dioxo-3-propyl-1,4-dihydronaphthalen-2-yl)methyl)-3-(trifluoromethyl)picolinonitrile]
[1]; [4]
  EC50: < 50 nM
[3]; [6]
  EC50: < 50 nM

## Cc1cc(CC2=C(C3CC3)C(=O)c3ccccc3C2=O)ncc1F [Example 120, 2-cyclopropyl-3-((5-fluoro-4-methylpyridin-2-yl)methyl)naphthalene-1,4-dione]
[1]; [4]
  EC50: < 50 nM
[2]; [5]
  EC50: < 50 nM
[3]; [6]
  EC50: < 50 nM

## CC1=C(Cc2ccc(C(F)(F)F)c(C#N)n2)C(=O)c2cc(F)cc(F)c2C1=O [Example 74, 6-((5,7-difluoro-3-methyl-1,4-dioxo-1,4-dihydronaphthalen-2-yl)methyl)-3-(trifluoromethyl)picolinonitrile]
[1]; [4]
  EC50: 50 to 250 nM
[2]; [5]
  EC50: < 50 nM

## CC1=C(Cc2ccc(C(F)(F)F)cn2)C(=O)c2cc(C(F)(F)F)ccc2C1=O [Example 53, 2-methyl-6-(trifluoromethyl)-3-((5-(trifluoromethyl)pyridin-2-yl)methyl)naphthalene-1,4-dione]
[1]; [4]
  EC50: 50 to 250 nM
[3]; [6]
  EC50: 50 to 250 nM

## [2H]C([2H])([2H])C1=C(Cc2ccc(C(F)(F)F)c(C#N)n2)C(=O)c2ccc(F)cc2C1=O [Example 73, 6-((6-fluoro-3-(methyl-d3)-1,4-dioxo-1,4-dihydronaphthalen-2-yl)methyl)-3-(trifluoromethyl)picolinonitrile]
[1]; [4]
  EC50: < 50 nM
[2]; [5]
  EC50: < 50 nM

## CCC1=C(Cc2ccc(C(F)(F)F)cn2)C(=O)c2cc(F)cc(F)c2C1=O [Example 56, 3-ethyl-5,7-difluoro-2-((5-(trifluoromethyl)pyridin-2-yl)methyl)naphthalene-1,4-dione]
[1]
  EC50: < 50 nM
[2]
  EC50: < 50 nM

## CCCC1=C(Cc2ccc(C(F)(F)F)c(C#N)n2)C(=O)c2cc(F)cc(F)c2C1=O [Example 82, 6-((5,7-difluoro-1,4-dioxo-3-propyl-1,4-dihydronaphthalen-2-yl)methyl)-3-(trifluoromethyl)picolinonitrile]
[1]; [4]
  EC50: < 50 nM
[2]; [5]
  EC50: < 50 nM

## [2H]C([2H])(C1=C(C)C(=O)c2ccccc2C1=O)c1ccc(C(F)(F)F)cn1 [Example 21, 2-methyl-3-((5-(trifluoromethyl)pyridin-2-yl)methyl-d2)naphthalene-1,4-dione]
[1]; [4]
  EC50: < 50 nM
[2]; [5]
  EC50: < 50 nM

## CC1=C(Cc2ccc(C(F)(F)F)c(C#N)n2)C(=O)c2c(F)cc(F)cc2C1=O [Example 75, 6-((6,8-difluoro-3-methyl-1,4-dioxo-1,4-dihydronaphthalen-2-yl)methyl)-3-(trifluoromethyl)picolinonitrile]
[1]; [4]
  EC50: < 50 nM
[2]; [5]
  EC50: < 50 nM

## CCC1=C(Cc2ccc(F)cn2)C(=O)c2c(F)ccc(F)c2C1=O [Example 88, 2-ethyl-5,8-difluoro-3-((5-fluoropyridin-2-yl)methyl)naphthalene-1,4-dione]
[1]; [4]
  EC50: < 50 nM
[2]; [5]
  EC50: < 50 nM

## Cc1c(Cc2ccc(C(F)(F)F)cn2)c(O)c2ccccc2c1O [Example 131, 2-methyl-3-((5-(trifluoromethyl)pyridin-2-yl)methyl)naphthalene-1,4-diol]
[1]
  EC50: < 50 nM
[3]
  EC50: < 50 nM

## CC1=C(Cc2ccc(C(F)(F)F)cn2)C(=O)c2cccc(Cl)c2C1=O [Example 60, 5-chloro-3-methyl-2-[[5-(trifluoromethyl)-2-pyridyl]methyl]naphthalene-1,4-dione]
[1]; [4]
  EC50: < 50 nM
[2]; [5]
  EC50: < 50 nM
